For assay [1], the system named is MCF-7 breast cancer cells. The assay is described as follows: MTT cell toxicity assay in MCF-7 breast cancer cells. It is filed as cell-based. The following applies: MCF-7 cells, MTT, final 0.5% FBS, two days with compound; for TGI: concentration of total growth inhibition (cytostatic). As for the experimental part:
Cell Toxicity Assays: MCF-7 (breast cancer), T47D (breast cancer), Colo 205 (colon cancer), JM-1 (rat hepatoma), Sk Me1-2 (melanoma), PLC (human hepatoma), and HepG2 (human hepatoma) cells were obtained from American Type Cell Culture Collection. MCF-7 cells were grown in RPMI medium supplemented with 10% Fetal Bovine Serum. The rest of the cell lines were grown in DMEM medium supplemented with 10% Fetal Bovine Serum.
MTT 43-(4,5-Dimethylthiazol-2-yl)-2,5-diphenyltetrazolium) cell assay was performed using MCF-7 breast cancer cells. For the assay, cells were seeded into 96 well plates in medium containing 1% Fetal Bovine Serum and 100 μL of a cell suspension containing 5000 cells per well. Wells containing medium-only, and wells containing untreated cells, served as controls.
Seeded cells were allowed to attach and grow in the wells for 24 hours. A 5 mM stock solution of each peptide was made by dissolving approximately 1 mg of peptide in appropriate amount of DMSO. 2 mL dilutions were used to make 0.2 μM, 1.0 μM, 5.0 μM, and 10.0 μM concentration solutions of the compounds in serum-free medium. 100 μl, of the resulting 2× solutions were added to the corresponding wells to provide a final FBS concentration of 0.5% and 0.1 μM, 0.5 μM, 2.5 μM, and 5.0 μM dilutions of inhibitors. The cells were incubated with test compounds for two days. The control wells were given 100 μL of medium to ensure maximum similarity to the test wells so that all of the wells had 200 μL of medium during the growth period. An individual plate was made for Time Zero, to which the dye was added at the time of addition of compounds.
An alternative potency assay was used to test compounds in MCF-7 (breast cancer), T47D (breast cancer), Colo 205 (colon cancer), JM-1 (rat hepatoma), Sk MeI-2 (melanoma), PLC (human hepatoma), and HepG2 (human hepatoma) cells. Cells were suspended at a concentration of approximately 5000 cells per 100 μL of suspension in a 5% FBS RPMI medium. The cells were seeded into 96-count wells and incubated over night. After one day's incubation, the 5% FBS medium was aspirated and replaced with 100 μL of no serum RPMI medium containing 1 mg Bovine Serum Albumin (BSA) per 1 mL RPMI. Various concentrations of the test compounds were prepared by dilution in no-serum medium containing 1 mg BSA/mL. 75 μL of the test compound solutions were added to the wells, and the cells were allowed to incubate for 15-20 minutes, after which time 25 μL of human recombinant IGF-1 (Peprotech) solution was added to the wells to attain final concentrations of 10 ng IGF-1/mL medium. The control wells were given 175 μL of no-serum medium in addition to 25 μL of IGF-1 solution. An individual plate was made for time zero, in which the medium was also aspirated and replaced with 175 μL of no-serum medium and 25 μL of IGF-1. 15 μL of MTT dye was added and let incubate for 4 hours, after which time a stop stop solubilization solution was added. The stop solution lysed the cells and released the dye reduced by the remaining living cells. Absorbance of the wells at 544 nm was determined by a FLUOstar/POLARstar Galaxy (BMG Lab Technologies GmbH) microplate reader. The activity was calculated from the data using the formula: 100×[(T−T0)/(C−T0)] for T>T0 and 100×[(T−T0)/T0] for T<T0, wherein T0 corresponds to cell density at the time of drug addition, “T” is the optical density of the test well after a 48-h period of exposure to test drug, and “C” is the control optical density. The GI50 measures the growth inhibitory power of the test agent, and is defined as the concentration of test drug where 100×(T−T0)/(C−T0)=50. The TGI is the concentration of test drug where 100×(T−T0)/(C−T0)=0. Thus, the TGI signifies a cytostatic effect.

The target in assay [2] is Insulin-like growth factor 1 receptor (IGF1R) (UniProt P08069 31-1367, limits assumed). The assay can be described thus: cell-based or functional assay.

Consider eleven molecules from patent US20110195911A1, “SYNTHETIC ANALOGS OF THE JUXTAMEMBRANE DOMAIN OF IGF1R AND USES THEREOF” (THE UNITED STATES OF AMERICA,AS REPRESENTED BY THE …, priority 2008, published 2011).

Where a SMILES comes first, the peptide text is derived from it. The star is where a group is joined. Palmitoyl = CCCCCCCCCCCCCCCC(=O)*

Sequence of Insulin-like growth factor 1 receptor (IGF1R) (P08069 31-1367 limits assumed): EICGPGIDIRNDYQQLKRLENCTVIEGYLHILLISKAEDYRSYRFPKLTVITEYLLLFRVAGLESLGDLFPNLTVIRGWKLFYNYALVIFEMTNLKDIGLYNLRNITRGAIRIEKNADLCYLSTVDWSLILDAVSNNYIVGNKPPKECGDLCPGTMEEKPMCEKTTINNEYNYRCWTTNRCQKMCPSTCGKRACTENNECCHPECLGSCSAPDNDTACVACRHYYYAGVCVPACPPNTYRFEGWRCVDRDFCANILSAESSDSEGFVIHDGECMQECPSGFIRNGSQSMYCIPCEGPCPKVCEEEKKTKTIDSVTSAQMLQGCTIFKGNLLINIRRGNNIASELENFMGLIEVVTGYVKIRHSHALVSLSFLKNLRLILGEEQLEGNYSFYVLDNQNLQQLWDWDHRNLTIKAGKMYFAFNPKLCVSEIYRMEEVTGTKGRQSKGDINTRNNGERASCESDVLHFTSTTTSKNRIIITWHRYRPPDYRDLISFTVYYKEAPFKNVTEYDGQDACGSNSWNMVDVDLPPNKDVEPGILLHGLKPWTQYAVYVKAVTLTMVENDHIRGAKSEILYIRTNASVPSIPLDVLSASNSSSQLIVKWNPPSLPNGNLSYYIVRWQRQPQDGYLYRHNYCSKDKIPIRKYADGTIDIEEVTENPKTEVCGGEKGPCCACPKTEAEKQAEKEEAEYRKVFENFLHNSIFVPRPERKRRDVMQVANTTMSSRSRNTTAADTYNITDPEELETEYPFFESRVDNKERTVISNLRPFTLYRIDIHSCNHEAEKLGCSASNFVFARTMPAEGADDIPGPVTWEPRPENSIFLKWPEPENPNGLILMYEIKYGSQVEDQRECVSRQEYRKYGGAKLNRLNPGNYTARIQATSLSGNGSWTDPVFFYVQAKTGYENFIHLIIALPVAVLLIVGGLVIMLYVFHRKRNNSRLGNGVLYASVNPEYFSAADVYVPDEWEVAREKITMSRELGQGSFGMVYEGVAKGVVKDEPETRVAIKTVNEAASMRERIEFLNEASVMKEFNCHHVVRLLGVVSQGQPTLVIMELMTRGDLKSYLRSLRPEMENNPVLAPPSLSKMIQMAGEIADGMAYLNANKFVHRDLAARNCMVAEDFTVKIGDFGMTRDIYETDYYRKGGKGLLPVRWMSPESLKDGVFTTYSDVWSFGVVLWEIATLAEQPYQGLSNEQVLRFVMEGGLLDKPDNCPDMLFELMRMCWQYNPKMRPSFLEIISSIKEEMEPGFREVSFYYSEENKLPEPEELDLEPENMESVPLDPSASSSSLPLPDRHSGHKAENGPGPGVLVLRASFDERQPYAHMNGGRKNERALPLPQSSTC

Consider `CCCCCCCCCCCCCCCC(=O)N[C@H](C(=O)N[C@@H](Cc1ccccc1)C(=O)N[C@@H](Cc1c[nH]cn1)C(=O)N[C@@H](CCCNC(=N)N)C(=O)N[C@@H](CCCCN)C(=O)N[C@@H](CCCNC(=N)N)C(=O)N[C@@H](CC(N)=O)C(=O)N[C@@H](CC(N)=O)C(=O)N[C@@H](CO)C(=O)N[C@@H](CCCNC(=N)N)C(=O)N[C@@H](CC(C)C)C(=O)NCC(=O)N[C@@H](CC(N)=O)C(=O)NCC(=O)N[C@H](C(=O)N[C@@H](CC(C)C)C(=O)N[C@@H](Cc1ccc(O)cc1)C(=O)N[C@@H](C)C(=O)N[C@@H](CO)C(=O)N[C@H](C(=O)N[C@@H](CC(N)=O)C(N)=O)C(C)C)C(C)C)C(C)C` [Peptide 24] (Palmitoyl-VFHRKRNNSRLGNGVLYASVN-NH2), for which, in assay [1], the GI50 was 100 ± 50 nM and the TGI was 1.1 ± 0.1 µM.

With `CCCCCCCCCCCCCCCC(=O)N[C@@H](CCCCN)C(=O)N[C@@H](CCCNC(=N)N)C(=O)N[C@@H](CC(N)=O)C(=O)N[C@@H](CC(N)=O)C(=O)N[C@@H](CO)C(=O)N[C@@H](CCCNC(=N)N)C(=O)N[C@@H](CC(C)C)C(=O)NCC(=O)N[C@@H](CC(N)=O)C(=O)NCC(=O)N[C@H](C(=O)N[C@@H](CC(C)C)C(=O)N[C@@H](Cc1ccc(O)cc1)C(N)=O)C(C)C` [Peptide 27, Pal-KRNNSRLGNGVLY-NH2] (Palmitoyl-KRNNSRLGNGVLY-NH2), in assay [1], the GI50 stood at 1100 ± 60 nM and the TGI is 2.5 ± 0.5 µM.

For `CCCCCCCCCCCCCCCC(=O)N[C@@H](CCCNC(=N)N)C(=O)N[C@@H](CC(N)=O)C(=O)N[C@@H](CC(N)=O)C(=O)N[C@@H](CO)C(=O)N[C@@H](CCCNC(=N)N)C(=O)N[C@@H](CC(C)C)C(=O)NCC(=O)N[C@@H](CC(N)=O)C(=O)NCC(=O)N[C@H](C(=O)N[C@@H](CC(C)C)C(=O)N[C@@H](Cc1ccccc1)C(N)=O)C(C)C` [Peptide 29, Pal-RNNSRLGNGVLF-NH2] (Palmitoyl-RNNSRLGNGVLF-NH2), in assay [1], the 50% growth inhibitory concentration (GI50) came out at 100 ± 5 nM and the TGI came to 1.2 ± 0.05 µM.

Take `CCCCCCCCCCCCCCCC(=O)N[C@@H](CCCNC(=N)N)C(=O)N[C@@H](CC(N)=O)C(=O)N[C@@H](CC(N)=O)C(=O)N[C@@H](CO)C(=O)N[C@@H](CCCNC(=N)N)C(=O)N[C@@H](CC(C)C)C(=O)NCC(=O)N[C@@H](CC(N)=O)C(=O)NCC(=O)N[C@H](C(=O)N[C@@H](CC(C)C)C(N)=O)C(C)C` [Peptide 30, Pal-RNNSRLGNGVL-NH2] (Palmitoyl-RNNSRLGNGVL-NH2): in assay [1], the GI50 came to 1700 ± 50 nM and the TGI turned out to be 3.7 ± 0.05 µM.

As to `CCCCCCCCCCCCCCCC(=O)N[C@@H](CCCNC(=N)N)C(=O)N[C@@H](CC(N)=O)C(=O)N[C@@H](CC(N)=O)C(=O)N[C@@H](CO)C(=O)N[C@@H](CCCNC(=N)N)C(=O)N[C@@H](CC(C)C)C(=O)NCC(=O)N[C@@H](CC(N)=O)C(=O)NCC(=O)N[C@H](C(=O)N[C@@H](CC(C)C)C(=O)N[C@@H](Cc1ccc(O)cc1)C(=O)N[C@@H](C)C(N)=O)C(C)C` [Peptide 33, Pal-RNNSRLGNGVLYA-NH2] (Palmitoyl-RNNSRLGNGVLYA-NH2), in assay [1], the GI50 worked out at 100 ± 50 nM and the TGI is greater than 5 µM.

As for `CCCCCCCCCCCCCCCC(=O)N[C@@H](CCCNC(=N)N)C(=O)N[C@@H](CC(N)=O)C(=O)N[C@@H](CC(N)=O)C(=O)N[C@@H](CO)C(=O)N[C@@H](CCCNC(=N)N)C(=O)N[C@@H](CC(C)C)C(=O)NCC(=O)N[C@@H](CC(N)=O)C(=O)NCC(=O)N[C@H](C(=O)N[C@@H](CC(C)C)C(=O)N[C@@H](Cc1ccc(O)cc1)C(=O)N[C@@H](C)C(=O)N[C@@H](CO)C(N)=O)C(C)C` [Peptide 34, Pal-RNNSRLGNGVLYAS-NH2] (Palmitoyl-RNNSRLGNGVLYAS-NH2), in assay [1], the GI50 worked out at 40 ± 1 nM and the TGI was greater than 5 µM.

Consider `CCCCCCCCCCCCCCCC(=O)N[C@@H](CCCNC(=N)N)C(=O)N[C@@H](CC(N)=O)C(=O)N[C@@H](CC(N)=O)C(=O)N[C@@H](CO)C(=O)N[C@@H](CCCNC(=N)N)C(=O)N[C@@H](CC(C)C)C(=O)NCC(=O)N[C@@H](CC(N)=O)C(=O)NCC(=O)N[C@H](C(=O)N[C@@H](CC(C)C)C(=O)N[C@@H](Cc1ccc(O)cc1)C(=O)N[C@@H](C)C(=O)N[C@@H](CO)C(=O)N[C@H](C(N)=O)C(C)C)C(C)C` [Peptide 35, Pal-RNNSRLGNGVLYASV-NH2] (Palmitoyl-RNNSRLGNGVLYASV-NH2), for which, in assay [1], the GI50 turned out to be 50 ± 1 nM and the TGI was 2.5 ± 0.5 µM.

B1: peptide 1 (Pal-HRKRNNSRLGNG-NH2) (peptide)
peptide: Palmitoyl-HRKRNNSRLGNG-NH2
SMILES: CCCCCCCCCCCCCCCC(=O)N[C@@H](Cc1c[nH]cn1)C(=O)N[C@@H](CCCNC(=N)N)C(=O)N[C@@H](CCCCN)C(=O)N[C@@H](CCCNC(=N)N)C(=O)N[C@@H](CC(N)=O)C(=O)N[C@@H](CC(N)=O)C(=O)N[C@@H](CO)C(=O)N[C@@H](CCCNC(=N)N)C(=O)N[C@@H](CC(C)C)C(=O)NCC(=O)N[C@@H](CC(N)=O)C(=O)NCC(N)=O
On to B1, for which, in assay [2], the “GI50 (µM), MTT assay, MCF-7 cells” value was 1.8 µM and the “TGI (µM), MTT assay, MCF-7 cells” value is greater than 5 µM.

B2: peptide 6 (Pal-VHRKRNNSRLGNGVLYASV-NH2) (peptide)
peptide: Palmitoyl-VHRKRNNSRLGNGVLYASV-NH2
SMILES: CCCCCCCCCCCCCCCC(=O)N[C@H](C(=O)N[C@@H](Cc1c[nH]cn1)C(=O)N[C@@H](CCCNC(=N)N)C(=O)N[C@@H](CCCCN)C(=O)N[C@@H](CCCNC(=N)N)C(=O)N[C@@H](CC(N)=O)C(=O)N[C@@H](CC(N)=O)C(=O)N[C@@H](CO)C(=O)N[C@@H](CCCNC(=N)N)C(=O)N[C@@H](CC(C)C)C(=O)NCC(=O)N[C@@H](CC(N)=O)C(=O)NCC(=O)N[C@H](C(=O)N[C@@H](CC(C)C)C(=O)N[C@@H](Cc1ccc(O)cc1)C(=O)N[C@@H](C)C(=O)N[C@@H](CO)C(=O)N[C@H](C(N)=O)C(C)C)C(C)C)C(C)C
Take B2: in assay [2], the “GI50 (µM), MTT assay, MCF-7 cells” value was 0.25 µM and the “TGI (µM), MTT assay, MCF-7 cells” value stood at 1.05 µM.

B3: peptide 5 (Pal-HRKRNNSRLGNGVLYASV-NH2) (peptide)
peptide: Palmitoyl-HRKRNNSRLGNGVLYASV-NH2
SMILES: CCCCCCCCCCCCCCCC(=O)N[C@@H](Cc1c[nH]cn1)C(=O)N[C@@H](CCCNC(=N)N)C(=O)N[C@@H](CCCCN)C(=O)N[C@@H](CCCNC(=N)N)C(=O)N[C@@H](CC(N)=O)C(=O)N[C@@H](CC(N)=O)C(=O)N[C@@H](CO)C(=O)N[C@@H](CCCNC(=N)N)C(=O)N[C@@H](CC(C)C)C(=O)NCC(=O)N[C@@H](CC(N)=O)C(=O)NCC(=O)N[C@H](C(=O)N[C@@H](CC(C)C)C(=O)N[C@@H](Cc1ccc(O)cc1)C(=O)N[C@@H](C)C(=O)N[C@@H](CO)C(=O)N[C@H](C(N)=O)C(C)C)C(C)C
Regarding B3, in assay [2], the “GI50 (µM), MTT assay, MCF-7 cells” value is 0.45 µM and the “TGI (µM), MTT assay, MCF-7 cells” value was determined as 1.45 µM.

B4: peptide 23 (Pal-HRKRNNSRLGNGVLYASVNP-NH2) (peptide)
peptide: Palmitoyl-HRKRNNSRLGNGVLYASVNP-NH2
SMILES: CCCCCCCCCCCCCCCC(=O)N[C@@H](Cc1c[nH]cn1)C(=O)N[C@@H](CCCNC(=N)N)C(=O)N[C@@H](CCCCN)C(=O)N[C@@H](CCCNC(=N)N)C(=O)N[C@@H](CC(N)=O)C(=O)N[C@@H](CC(N)=O)C(=O)N[C@@H](CO)C(=O)N[C@@H](CCCNC(=N)N)C(=O)N[C@@H](CC(C)C)C(=O)NCC(=O)N[C@@H](CC(N)=O)C(=O)NCC(=O)N[C@H](C(=O)N[C@@H](CC(C)C)C(=O)N[C@@H](Cc1ccc(O)cc1)C(=O)N[C@@H](C)C(=O)N[C@@H](CO)C(=O)N[C@H](C(=O)N[C@@H](CC(N)=O)C(=O)N1CCC[C@H]1C(N)=O)C(C)C)C(C)C
As to B4, in assay [2], the “GI50 (µM), MTT assay, MCF-7 cells” value was determined as 0.1 µM and the “TGI (µM), MTT assay, MCF-7 cells” value is greater than 5 µM.
